Measurements reported in ChEMBL document CHEMBL1629662, “Antimicrobial activity of prulifloxacin tested against a worldwide collection of gastroenteritis-producing pathogens, including those causing traveler's diarrhea” (2009).
Values after ≈ are worked out from the molar mass of the structure shown.

Legend:
[1] = test system: Yersinia pseudotuberculosis; assay: Antibacterial activity against Yersinia pseudotuberculosis assessed as percent susceptible isolates by broth microdilution method; assay type: functional
[2] = test system: Campylobacter coli; assay: Antibacterial activity against Campylobacter coli by broth microdilution method; assay type: functional
[3] = test system: Aeromonas veronii; assay: Antibacterial activity against Aeromonas veronii assessed as percent susceptible isolates by broth microdilution method; assay type: functional
[4] = test system: Vibrio vulnificus; assay: Antibacterial activity against Vibrio vulnificus by broth microdilution method; assay type: functional
[5] = test system: Aeromonas veronii; assay: Antibacterial activity against Aeromonas veronii by broth microdilution method; assay type: functional
[6] = test system: Aeromonas veronii; assay: Antibacterial activity against Aeromonas veronii assessed as percent resistant isolates by broth microdilution method; assay type: functional
[7] = test system: Salmonella enteritidis; assay: Antibacterial activity against Salmonella enterica serovar Enteritidis by broth microdilution method; assay type: functional, Salmonella enterica subsp. enterica serovar Enteritidis
[8] = test system: Shigella boydii; assay: Antibacterial activity against Shigella boydii assessed as percent susceptible isolates by broth microdilution method; assay type: functional; conditions: pooled result: one value given for 3 cell lines, strains, targets or settings
[9] = test system: Yersinia enterocolitica; assay: Antibacterial activity against Yersinia enterocolitica by broth microdilution method; assay type: functional
[10] = test system: Vibrio sp.; assay: Antibacterial activity against Vibrio sp. by broth microdilution method; assay type: functional
[11] = test system: Shigella flexneri; assay: Antibacterial activity against Shigella flexneri by broth microdilution method; assay type: functional
[12] = test system: Salmonella typhi; assay: Antibacterial activity against Salmonella enterica serovar Typhi assessed as percent susceptible isolates by broth microdilution method; assay type: functional, Salmonella enterica subsp. enterica serovar Typhi
[13] = test system: Aeromonas caviae; assay: Antibacterial activity against Aeromonas caviae assessed as percent resistant isolates by broth microdilution method; assay type: functional
[14] = test system: Vibrio parahaemolyticus; assay: Antibacterial activity against Vibrio parahaemolyticus by broth microdilution method; assay type: functional
[15] = test system: Aeromonas caviae; assay: Antibacterial activity against Aeromonas caviae assessed as percent susceptible isolates by broth microdilution method; assay type: functional
[16] = test system: Aeromonas hydrophila; assay: Antibacterial activity against Aeromonas hydrophila assessed as percent resistant isolates by broth microdilution method; assay type: functional
[17] = test system: Campylobacter jejuni; assay: Antibacterial activity against Campylobacter jejuni assessed as percent susceptible isolates by broth microdilution method; assay type: functional; conditions: pooled result: one value given for 2 cell lines, strains, targets or settings
[18] = test system: Salmonella paratyphi; assay: Antibacterial activity against Salmonella enterica serovar Paratyphi assessed as percent susceptible isolates by broth microdilution method; assay type: functional, Salmonella enterica subsp. enterica serovar Paratyphi A
[19] = test system: Escherichia coli; assay: Antibacterial activity against Escherichia coli by broth microdilution method; assay type: functional
[20] = test system: Escherichia coli; assay: Antibacterial activity against Escherichia coli assessed as percent resistant isolates by broth microdilution method; assay type: functional
[21] = test system: Shigella sonnei; assay: Antibacterial activity against Shigella sonnei by broth microdilution method; assay type: functional
[22] = test system: Aeromonas sobria; assay: Antibacterial activity against Aeromonas sobria by broth microdilution method; assay type: functional
[23] = test system: Yersinia enterocolitica; assay: Antibacterial activity against Yersinia enterocolitica assessed as percent resistant isolates by broth microdilution method; assay type: functional
[24] = test system: Aeromonas caviae; assay: Antibacterial activity against Aeromonas caviae by broth microdilution method; assay type: functional
[25] = test system: Salmonella typhimurium; assay: Antibacterial activity against Salmonella enterica serovar Typhimurium assessed as percent resistant isolates by broth microdilution method; assay type: functional, Salmonella enterica subsp. enterica serovar Typhimurium; conditions: pooled result: one value given for 8 cell lines, strains, targets or settings
[26] = test system: Campylobacter jejuni; assay: Antibacterial activity against Campylobacter jejuni assessed as percent resistant isolates by broth microdilution method; assay type: functional; conditions: pooled result: one value given for 2 cell lines, strains, targets or settings
[27] = test system: Campylobacter jejuni; assay: Antibacterial activity against Campylobacter jejuni by broth microdilution method; assay type: functional
[28] = test system: Salmonella enteritidis; assay: Antibacterial activity against Salmonella enterica serovar Enteritidis assessed as percent susceptible isolates by broth microdilution method; assay type: functional, Salmonella enterica subsp. enterica serovar Enteritidis; conditions: pooled result: one value given for 5 cell lines, strains, targets or settings
[29] = test system: Yersinia enterocolitica; assay: Antibacterial activity against Yersinia enterocolitica assessed as percent susceptible isolates by broth microdilution method; assay type: functional
[30] = test system: Aeromonas sobria; assay: Antibacterial activity against Aeromonas sobria assessed as percent resistant isolates by broth microdilution method; assay type: functional
[31] = test system: Vibrio fluvialis; assay: Antibacterial activity against Vibrio fluvialis by broth microdilution method; assay type: functional
[32] = test system: Plesiomonas shigelloides; assay: Antibacterial activity against Plesiomonas shigelloides assessed as percent susceptible isolates by broth microdilution method; assay type: functional
[33] = test system: Aeromonas hydrophila; assay: Antibacterial activity against Aeromonas hydrophila by broth microdilution method; assay type: functional
[34] = test system: Aeromonas hydrophila; assay: Antibacterial activity against Aeromonas hydrophila assessed as percent susceptible isolates by broth microdilution method; assay type: functional
[35] = test system: Shigella dysenteriae; assay: Antibacterial activity against Shigella dysenteriae by broth microdilution method; assay type: functional
[36] = test system: Shigella dysenteriae; assay: Antibacterial activity against Shigella dysenteriae assessed as percent susceptible isolates by broth microdilution method; assay type: functional
[37] = test system: Yersinia pseudotuberculosis; assay: Antibacterial activity against Yersinia pseudotuberculosis by broth microdilution method; assay type: functional
[38] = test system: Salmonella typhimurium; assay: Antibacterial activity against Salmonella enterica serovar Typhimurium by broth microdilution method; assay type: functional, Salmonella enterica subsp. enterica serovar Typhimurium
[39] = test system: Aeromonas sobria; assay: Antibacterial activity against Aeromonas sobria assessed as percent susceptible isolates by broth microdilution method; assay type: functional
[40] = test system: Plesiomonas shigelloides; assay: Antibacterial activity against Plesiomonas shigelloides assessed as percent resistant isolates by broth microdilution method; assay type: functional
[41] = test system: Vibrio cholerae; assay: Antibacterial activity against Vibrio cholerae by broth microdilution method; assay type: functional
[42] = test system: Shigella boydii; assay: Antibacterial activity against Shigella boydii by broth microdilution method; assay type: functional
[43] = test system: Vibrio alginolyticus; assay: Antibacterial activity against Vibrio alginolyticus by broth microdilution method; assay type: functional
[44] = test system: Shigella sonnei; assay: Antibacterial activity against Shigella sonnei assessed as percent resistant isolates by broth microdilution method; assay type: functional; conditions: pooled result: one value given for 4 cell lines, strains, targets or settings
[45] = test system: Plesiomonas shigelloides; assay: Antibacterial activity against Plesiomonas shigelloides by broth microdilution method; assay type: functional
[46] = test system: Escherichia coli; assay: Antibacterial activity against Escherichia coli assessed as percent susceptible isolates by broth microdilution method; assay type: functional
[47] = test system: Salmonella paratyphi; assay: Antibacterial activity against Salmonella enterica serovar Paratyphi by broth microdilution method; assay type: functional, Salmonella enterica subsp. enterica serovar Paratyphi A

O=C(O)c1cn(C2CC2)c2cc(N3CCNCC3)c(F)cc2c1=O [CIPROFLOXACIN]
Activity [1]: 100% | MIC50 [2]: 0.06 µg/mL (≈ 0.181 µM) | MIC90 [2]: > 2 µg/mL | Activity [3]: 98% | MIC50 [4]: 0.016 µg/mL (≈ 0.0483 µM) | MIC90 [4]: 0.06 µg/mL (≈ 0.181 µM) | MIC50 [5]: 0.004 µg/mL (≈ 0.0121 µM) | MIC90 [5]: 0.06 µg/mL (≈ 0.181 µM) | Activity [6]: 2% | MIC50 [7]: 0.008 µg/mL (≈ 0.0241 µM) | MIC90 [7]: 0.12 µg/mL (≈ 0.362 µM) | Activity [8]: 100% | MIC50 [9]: 0.016 µg/mL (≈ 0.0483 µM) | MIC90 [9]: 0.03 µg/mL (≈ 0.0905 µM) | MIC50 [10]: 0.016 µg/mL (≈ 0.0483 µM) | MIC90 [10]: 0.06 µg/mL (≈ 0.181 µM) | MIC50 [11]: 0.008 µg/mL (≈ 0.0241 µM) | MIC90 [11]: 0.016 µg/mL (≈ 0.0483 µM) | Activity [12]: 100% | Activity [13]: 2% | MIC50 [14]: 0.016 µg/mL (≈ 0.0483 µM) | MIC90 [14]: 0.06 µg/mL (≈ 0.181 µM) | Activity [15]: 98% | Activity [16]: 2% | Activity [17]: 82.6% | Activity [18]: 100% | MIC50 [19]: 0.008 µg/mL (≈ 0.0241 µM) | MIC90 [19]: 0.016 µg/mL (≈ 0.0483 µM) | Activity [20]: 3% | MIC50 [21]: 0.008 µg/mL (≈ 0.0241 µM) | MIC90 [21]: 0.016 µg/mL (≈ 0.0483 µM) | MIC50 [22]: 0.004 µg/mL (≈ 0.0121 µM) | MIC90 [22]: 0.06 µg/mL (≈ 0.181 µM) | Activity [23]: 0% | MIC50 [24]: 0.004 µg/mL (≈ 0.0121 µM) | MIC90 [24]: 0.06 µg/mL (≈ 0.181 µM) | Activity [25]: 0% | Activity [26]: 16.5% | MIC50 [27]: 0.06 µg/mL (≈ 0.181 µM) | MIC90 [27]: > 2 µg/mL | Activity [28]: 100% | Activity [29]: 100% | Activity [30]: 2% | MIC50 [31]: 0.016 µg/mL (≈ 0.0483 µM) | MIC90 [31]: 0.06 µg/mL (≈ 0.181 µM) | Activity [32]: 100% | MIC50 [33]: 0.004 µg/mL (≈ 0.0121 µM) | MIC90 [33]: 0.06 µg/mL (≈ 0.181 µM) | Activity [34]: 98% | MIC50 [35]: 0.008 µg/mL (≈ 0.0241 µM) | MIC90 [35]: 0.016 µg/mL (≈ 0.0483 µM) | Activity [36]: 100% | MIC50 [37]: 0.016 µg/mL (≈ 0.0483 µM) | MIC90 [37]: 0.03 µg/mL (≈ 0.0905 µM) | MIC50 [38]: 0.008 µg/mL (≈ 0.0241 µM) | MIC90 [38]: 0.12 µg/mL (≈ 0.362 µM) | Activity [39]: 98% | Activity [40]: 0% | MIC50 [41]: 0.016 µg/mL (≈ 0.0483 µM) | MIC90 [41]: 0.06 µg/mL (≈ 0.181 µM) | MIC50 [42]: 0.008 µg/mL (≈ 0.0241 µM) | MIC90 [42]: 0.016 µg/mL (≈ 0.0483 µM) | MIC50 [43]: 0.016 µg/mL (≈ 0.0483 µM) | MIC90 [43]: 0.06 µg/mL (≈ 0.181 µM) | Activity [44]: 0% | MIC50 [45]: 0.004 µg/mL (≈ 0.0121 µM) | Activity [46]: 97% | MIC [47]: 0.004 µg/mL (≈ 0.0121 µM)
